Measurements from patent publication US6627639B2, “Uses for indoletetrahydropyridine derivatives of 2,3-dihydro-7H-[1,4]dioxino-[2,3-e]indole” (Wyeth, priority 2001, dated 2003).

Key:
[1] = target: T1, cloned human 5-HT1A receptors (Homo sapiens, UniProt P08908); test: 35S-GTPγS binding assay, 5-HT1A antagonist function; type: biochemical; details: reversal of 8-OHDPAT effect on 35S-GTPγS binding
T1 construct: expressed in transfected cells
T1 sequence (P08908 1-422): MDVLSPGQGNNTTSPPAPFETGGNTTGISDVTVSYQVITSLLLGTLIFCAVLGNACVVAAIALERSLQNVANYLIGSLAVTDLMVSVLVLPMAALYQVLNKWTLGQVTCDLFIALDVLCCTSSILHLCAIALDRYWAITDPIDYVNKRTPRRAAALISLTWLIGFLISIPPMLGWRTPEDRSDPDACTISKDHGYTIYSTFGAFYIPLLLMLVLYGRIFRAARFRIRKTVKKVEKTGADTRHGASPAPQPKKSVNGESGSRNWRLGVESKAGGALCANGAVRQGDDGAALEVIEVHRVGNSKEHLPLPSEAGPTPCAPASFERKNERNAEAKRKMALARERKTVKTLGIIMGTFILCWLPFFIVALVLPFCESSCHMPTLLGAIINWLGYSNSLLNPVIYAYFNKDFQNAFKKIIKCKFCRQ
Method: Antagonist activity at 5-HT1A receptors was established by using a ^35S-GTPγS binding assay similar to that used by Lazareno and Birdsall (Br. J. Pharmacol. 109: 1120, 1993), in which the test compound's ability to affect the binding of ^35S-GTPγS to membranes containing cloned human 5-HT1A receptors was determined. Agonists produce an increase in binding whereas antagonists produce no increase but rather reverse the effects of the standard agonist 8-OHDPAT. The test compound's maximum inhibitory effect is represented as the Imax, while its potency is defined by the IC50.

[2] = target: T2, human 5-HT1A receptors (Homo sapiens, UniProt P08908); test: [3H] 8-OHDPAT displacement, 5-HT1A receptor affinity; type: binding
T2 construct: expressed in transfected cells; host or cells: CHO cells
T2 sequence (P08908 1-422): T1 sequence (P08908 1-422)
Source text: High affinity for the serotonin 5-HT1A receptor was established by testing the claimed compound's ability to displace [^3H] 8-OHDPAT (dipropylaminbtetralin) from the 5-HT1A serotonin receptor following a modification of the procedure of Hall et al., J. Neurochem. 44, 1685 (1985) which utilizes CHO cells stably transfected with human 5-HT1A receptors.

[3] = target: T3, serotonin transporter (Rattus norvegicus, UniProt P31652); test: 3H-paroxetine displacement, serotonin transporter affinity; type: binding
T3 construct: displace ^3H-paroxetine from male rat frontal cortical membranes; from tissue; host or cells: male rat frontal cortex membranes
T3 sequence (P31652 whole entry): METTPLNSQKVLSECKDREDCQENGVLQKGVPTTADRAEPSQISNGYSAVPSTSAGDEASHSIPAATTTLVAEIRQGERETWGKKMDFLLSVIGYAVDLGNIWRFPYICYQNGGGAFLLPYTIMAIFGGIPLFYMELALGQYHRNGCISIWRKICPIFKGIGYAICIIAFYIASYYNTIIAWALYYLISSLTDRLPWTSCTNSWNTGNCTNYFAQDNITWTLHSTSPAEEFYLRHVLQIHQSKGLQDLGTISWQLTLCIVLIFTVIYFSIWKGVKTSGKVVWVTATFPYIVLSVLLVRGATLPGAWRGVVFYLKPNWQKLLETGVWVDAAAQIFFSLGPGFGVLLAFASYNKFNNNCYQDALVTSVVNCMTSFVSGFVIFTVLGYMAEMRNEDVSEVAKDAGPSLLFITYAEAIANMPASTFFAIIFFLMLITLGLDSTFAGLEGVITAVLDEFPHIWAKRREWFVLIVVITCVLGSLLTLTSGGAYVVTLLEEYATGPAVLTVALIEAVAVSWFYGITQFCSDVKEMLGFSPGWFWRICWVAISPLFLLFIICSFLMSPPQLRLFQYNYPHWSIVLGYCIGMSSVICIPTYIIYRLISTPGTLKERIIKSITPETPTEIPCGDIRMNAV

Structure (SMILES) | melting point [°C] | 5-HT1A Function Imax (maximum inhibitory effect) [1] | IC50 [1] [nM] | Ki [2] [nM] | Ki [3] [nM]
CCc1cc2c3c(ccc2[nH]1)OCC(CN1CC=C(c2c[nH]c4ccccc24)CC1)O3 (stereo not shown) (hydrate or solvate) [Example 4, 8-Ethyl-2-[(4-(1H-indol-3-yl)-3,6-dihydropyridin-1(2H)-yl)methyl]-2,3-dihydro-7H-[1,4]dioxino[2,3-e]indole] | 175 to 177 |  |  |  | 
CCc1cc2c3c(ccc2[nH]1)OCC(CN1CC=C(c2c[nH]c4ccc(F)cc24)CC1)O3 (stereo not shown) (hydrate or solvate) [Example 5, 8-Ethyl-2-[(4-(5-fluoro-1H-indol-3-yl)-3,6-dihydropyridin-1(2H)-yl)methyl]2,3-dihydro-7H-[1,4]dioxino[2,3-e]indole] | 81 to 82 |  |  |  | 
Cc1cc2c3c(ccc2[nH]1)OCC(CN1CC=C(c2c[nH]c4ccccc24)CC1)O3 (stereo not shown) [Example 1, 2-[(4-(1H-Indol-3-yl)-3,6-dihydropyridin-1(2H)-yl)methyl]-8-methyl-2,3-dihydro-7H-[1,4]dioxino[2,3-e]indole] | 212 to 215 | 100 | 16 | 0.45 | 3.44
C1=C(c2c[nH]c3ccccc23)CCN(CC2COc3ccc4[nH]ccc4c3O2)C1 (stereo not shown) [Example 2, 2-[(4-(1H-Indol-3-yl)-3,6-dihydropyridin-1(2H)-yl)methyl]-2,3-dihydro-7H-[1,4]dioxino[2,3-e]indole] | 126 | 52 | 23 | 1.55 | 0.77
Fc1ccc2[nH]cc(C3=CCN(CC4COc5ccc6[nH]ccc6c5O4)CC3)c2c1 (stereo not shown) [Example 3, 2-{[4-(5-Fluoro-1H-indol-3-yl)-3,6-dihydropyridin-1(2H)-yl]methyl}-2,3-dihydro-7H-[1,4]dioxino[2,3-e]indole] | 112 | 100 | 11.3 | 2.45 | 1.23
CCc1cc2c3c(ccc2[nH]1)OCC(CN1CC=C(c2c[nH]c4ccccc24)CC1)O3 (stereo not shown) [Example 4, 8-Ethyl-2-[(4-(1H-indol-3-yl)-3,6-dihydropyridin-1(2H)-yl)methyl]-2,3-dihydro-7H-[1,4]dioxino[2,3-e]indole] |  | 78 | 73 | 4.56 | 10
CCc1cc2c3c(ccc2[nH]1)OCC(CN1CC=C(c2c[nH]c4ccc(F)cc24)CC1)O3 (stereo not shown) [Example 5, 8-Ethyl-2-[(4-(5-fluoro-1H-indol-3-yl)-3,6-dihydropyridin-1(2H)-yl)methyl]2,3-dihydro-7H-[1,4]dioxino[2,3-e]indole] |  | 98 | 265 | 26.3 | 10
